In PubChem BioAssay AID192 (DTP/NCI, 2004):
Where “and” joins values, the source holds several entries; their conditions need not be identical. Identical values can stand only once. Toxic doses and inconclusive results are not listed.

Test system: BDF1 mice, B16 melanoma ip, median survival T/C
Assay: NCI In Vivo Anticancer Drug Screen. Data for tumor model B16 Melanoma (intraperitoneal) in B6D2F1 (BDF1) mice
Conditions: endpoint: median survival time, higher = longer survival
Procedure, shortened: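 Mice with transplantable tumors; drug vs vehicle groups; endpoint survival or tumor size; value = T/C.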

O=C1c2ccccc2C(=O)c2c(NCCNCCO)ccc(NCCNCCO)c21
T/C (dose: 0.25 mg/kg/injection, schedule: Q01DX009 (ip), vehicle: saline with Tween-80): 124 % of control
T/C (dose: 0.25 mg/kg/injection, schedule: Q01DX009 (ip), vehicle: saline): 110 % of control and 111 % of control
T/C (dose: 0.5 mg/kg/injection, schedule: Q01DX009 (ip), vehicle: saline with Tween-80): 118 % of control
T/C (dose: 0.5 mg/kg/injection, schedule: Q01DX009 (ip), vehicle: saline): 118 % of control
T/C (dose: 1.0 mg/kg/injection, schedule: Q01DX009 (ip), vehicle: other): 124 % of control
T/C (dose: 1.0 mg/kg/injection, schedule: Q01DX009 (ip), vehicle: saline with Tween-80): 152 % of control
T/C (dose: 1.0 mg/kg/injection, schedule: Q02DX009 (ip), vehicle: saline): 159 % of control
T/C (dose: 1.0 mg/kg/injection, schedule: Q03HX016 (ip), vehicle: acid diluted with saline): 161 % of control
T/C (dose: 1.0 mg/kg/injection, schedule: Q03HX024 (ip), vehicle: acid diluted with saline): 167 % of control
T/C (dose: 2.0 mg/kg/injection, schedule: Q01DX009 (ip), vehicle: acid diluted with saline): 183 % of control and 208 % of control
T/C (dose: 2.0 mg/kg/injection, schedule: Q01DX009 (ip), vehicle: saline with Tween-80): 175 % of control
T/C (dose: 2.0 mg/kg/injection, schedule: Q01DX009 (ip), vehicle: water): 168 % of control
T/C (dose: 2.0 mg/kg/injection, schedule: Q03HX008 (ip), vehicle: acid diluted with saline): 157 % of control
T/C (dose: 2.0 mg/kg/injection, schedule: Q03HX016 (ip), vehicle: acid diluted with saline): 202 % of control
T/C (dose: 2.0 mg/kg/injection, schedule: Q03HX024 (ip), vehicle: acid diluted with saline): 209 % of control
T/C (dose: 2.0 mg/kg/injection, schedule: Q03HX024 (ip), vehicle: saline): 123 % of control
T/C (dose: 4.0 mg/kg/injection, schedule: Q01DX005 (ip), vehicle: saline): 151 % of control
T/C (dose: 4.0 mg/kg/injection, schedule: Q01DX005 (iv), vehicle: saline): 106 % of control
T/C (dose: 4.0 mg/kg/injection, schedule: Q01DX009 (ip), vehicle: Klucel (hydroxypropylcellulose) (HPC)): 180 % of control
T/C (dose: 4.0 mg/kg/injection, schedule: Q01DX009 (ip), vehicle: saline with Tween-80): 154 % of control and 188 % of control
T/C (dose: 4.0 mg/kg/injection, schedule: Q01DX009 (ip), vehicle: water): 169 % of control and 172 % of control and 211 % of control
T/C (dose: 4.0 mg/kg/injection, schedule: Q01DX009 (sc), vehicle: acid diluted with saline): 121 % of control
T/C (dose: 4.0 mg/kg/injection, schedule: Q01DX009 (sc), vehicle: saline): 108 % of control
T/C (dose: 4.0 mg/kg/injection, schedule: Q02DX009 (ip), vehicle: saline): 170 % of control and 188 % of control
T/C (dose: 4.0 mg/kg/injection, schedule: Q03HX008 (ip), vehicle: acid diluted with saline): 206 % of control
T/C (dose: 4.0 mg/kg/injection, schedule: Q03HX016 (ip), vehicle: acid diluted with saline): 204 % of control
T/C (dose: 4.0 mg/kg/injection, schedule: Q03HX024 (ip), vehicle: saline): 207 % of control
T/C (dose: 8.0 mg/kg/injection, schedule: Q01DX005 (ip), vehicle: acid diluted with saline): 192 % of control
T/C (dose: 8.0 mg/kg/injection, schedule: Q01DX005 (iv), vehicle: saline): 106 % of control
T/C (dose: 8.0 mg/kg/injection, schedule: Q01DX009 (ip), vehicle: Klucel (hydroxypropylcellulose) (HPC)): 158 % of control
T/C (dose: 8.0 mg/kg/injection, schedule: Q01DX009 (ip), vehicle: other): 180 % of control
T/C (dose: 8.0 mg/kg/injection, schedule: Q01DX009 (ip), vehicle: saline with Tween-80): 159 % of control and 190 % of control
T/C (dose: 8.0 mg/kg/injection, schedule: Q01DX009 (oral), vehicle: acid diluted with saline): 98 % of control
T/C (dose: 8.0 mg/kg/injection, schedule: Q01DX009 (sc), vehicle: acid diluted with saline): 111 % of control
T/C (dose: 8.0 mg/kg/injection, schedule: Q01DX009 (sc), vehicle: saline): 123 % of control
T/C (dose: 8.0 mg/kg/injection, schedule: Q02DX009 (ip), vehicle: saline): 191 % of control
T/C (dose: 8.0 mg/kg/injection, schedule: Q03HX008 (ip), vehicle: acid diluted with saline): 192 % of control
T/C (dose: 8.0 mg/kg/injection, schedule: Q04DX003 (ip), vehicle: acid diluted with saline): 195 % of control
T/C (dose: 8.0 mg/kg/injection, schedule: Q08DX002 (ip), vehicle: acid diluted with saline): 178 % of control
T/C (dose: 8.0 mg/kg/injection, schedule: Q08DX002 (ip), vehicle: saline): 119 % of control
T/C (dose: 16.0 mg/kg/injection, schedule: Q01DX001 (ip), vehicle: acid diluted with saline): 156 % of control
T/C (dose: 16.0 mg/kg/injection, schedule: Q01DX001 (oral), vehicle: saline): 108 % of control
T/C (dose: 16.0 mg/kg/injection, schedule: Q01DX001 (sc), vehicle: acid diluted with saline): 102 % of control
T/C (dose: 16.0 mg/kg/injection, schedule: Q01DX005 (ip), vehicle: saline): 166 % of control
T/C (dose: 16.0 mg/kg/injection, schedule: Q01DX005 (iv), vehicle: saline): 116 % of control
